Source: US7468255B2, “Method for assaying for natural killer, cytotoxic T-lymphocyte and neutrophil-mediated killing of target cells using real-time microelectronic cell sensing technology” (ACEA Biosciences, priority 2002, dated 2008)

Key:
[1] = test system: NK-92-mediated cytolysis of A549 cells; assay: Inhibition of NK-mediated cytolysis of target cells by signaling pathway inhibitors (RT-CES); type: cell-based, human; conditions: NK-92 pre-incubated with inhibitor, E/T 16:1
Experimental: FIG. 31. Specificity of NK-92 mediated cytolysis of target cells. (A) A549 cells were seeded in the wells of E-plates. Twenty four hours after seeding NK-cells at a density of 16:1 (E/T ratio) were pre-incubated with the different concentrations of the MEK inhibitor PD 98059 for thirty minutes and then added to A549 cells at the indicated time point (arrow). The viability of A549 cells were continually monitored using the RT-CES system. (B) The extent of NK-92 mediated cytolystic activity in the presence of MEK inhibitor was calculated at the indicated times post-NK addition as described in materials and methods section. (C) The effect of P13 Kinase inhibitor Wortmannin on NK-92 mediated cytolysis of A549 cells. […] (D) Percent cytolytic activity of NK-92 cells was calculated at the end of the experiment described in (C).
In this example, a microelectronic sensor-based platform, the RT-CES (real time electronic sensing) system, is introduced for label free assessment of natural killer (NK) cell-mediated cytolytic activity. The RT-CES system was used to dynamically and quantitatively monitor NK-mediated cytolysis of 9 different target cell lines, including cancer cell lines commonly used in laboratories. […] Cell growth was dynamically monitored using the RT-CES system for a period of 24-34 hours, depending on the experiment until they reached log growth phase and formed a monolayer. […]

A549 cells [2] = type: cell-based; conditions: for effect of inhibitor alone on A549 baseline: A549 target cells without NK cells
Experimental: (§1) In order to observe the kinetics of drug interaction with target cells, A549 non-small lung cancer cells were seeded in ACEA 96× e-plate™ and continuously monitored until the cells reached the log growth phase at which point different concentrations of paclitaxel were added to the cells at the indicated final concentration. […] Remarkably, the cells recover from the initial cytotoxic effect of the drug and start to re-proliferate. While it remains to be determined if this phenomenon is due to metabolism and inactivation of paclitaxel or due to the emergence of paclitaxel-resistant subpopulation, this experiment clearly exemplifies the tremendous advantage of real-time measurement which is offered by the RT-CES system and allows the user to the opportunity to observe and assess the entire history of drug interaction with the target cells which provides further information in addition to cell viability or cytotoxicity. The phenomenon observed in FIG. 20A would've been easily missed by traditional single-point assays such as MTT.
Yet another major advantage of using the RT-CES system to continually monitor the interaction of drugs with target cells is that the user can obtain insight into the mechanism of action of the drug of interest. […] The cells were treated with either DMSO as the vehicle control or with 100 μM Olomoucine which is a CDK inhibitor and induces cell cycle arrest either at G1→S transition or at the G2→M transition, depending on the cell line. […] The control cells treated with DMSO continue to proliferate until they reach confluence, at which time they are contact inhibited and the Cell Index recording levels off. […]. Taken together, using the RT-CES system to dynamically monitor drug interaction with the target cells offers the user the opportunity to understand the mechanism of drug action and its mode of interaction with the target cell.

[3] = test system: various cell types (listed in Table 1); assay: RT-CES profiling of dynamic cell responses to anti-cancer drugs; type: cell-based; conditions: for cell index curve pattern: cell lines of Table 1
Experimental: FIGS. 10A and B show the responses of various cell types (listed in Table 1) to olomoucine treatment as monitored using a cell-substrate imepdnace monitoring system of the presnet invention. The cellular responses were continuously monitored at 15 or 30 or 60 minutes time interval before and after treatment with olomoucine. […] Take the treatment of olomoucine at 100 uM as an example. […] The “near-constant” cell index curves were also observed for cells treated with roscovitine, which is another compound causing cell cycle arrest. The cell index curves shown in FIGS. 10A and 10B are strikingly different from the cell index curves shown in FIGS. 9A and 9B, and FIGS. 11A and 11B, where compounds follow different mechanism of compound action.
The cellular responses were continuously monitored at 15 or 30 or 60 minutes time interval before and after treatment with doxorubicin. […] Take the treatment of doxoorubincin at 3.13 uM as an example. For most of cell types tested, initially after the treatment, cell index increased with time in similar way to the cell index from DMSO control wells. After 10-20 hrs, depending on cell type, the cell index reached a peak and started decreasing with time. From that time on, the cell index monotonically decreases. […] Both Doxorubicin and 5-Fluorouacil act on cells through effects on DNA replication or topology.
The cellular responses were continuously monitored at 15 or 30 or 60 minutes time interval before and after treatment with paclitaxel. […] Take the treatment of palitaxel at 0.78-12.5 nM range as examples. […] For one particular cell index curve, after the cell index reached a minimum, it then reversed its decreasing trend and started to increase. […] All these compounds—i.e., paclitaxel, vinblastin and colcemid, are so called mitotic poisons and follow similar mechanism of drug action. For example, both vinblastin and paclitaxel act on microtubule dynamics within a cell.
In this study, we used the RT-CES system to dynamically monitor cancer cell responses to chemotherapeutic compounds with characterized mechanisms, and to profile the specific cell response patterns. Thirteen cancer cell lines including cancers of breast, prostate, lung, colon, ovary, kidney, fibroblast, and central nervous system were tested (Table 1). Each cancer cell type was treated with 11 chemotherapeutic compounds, classified as DNA damaging agents, protein kinase inhibitors, anti-mitotic drugs, cell cycle specific inhibitors, protein synthesis inhibitors plus a compound of unknown category (Table 2). Dynamic and dose dependent cell-compound interaction patterns were characterized and summarized for all the tested cell lines and compounds. The profiles for three drugs, doxorubicin, olomoucine and paclitaxel against a panel of 12 different cell lines are presented in FIGS. 9, 10 and 11, respectively. In addition, we characterized the biological effect of these compounds on cells by monitoring cell cycle progression, cell viability and morphological status of the cells in an attempt to correlate specific cellular response to the shape of the cell index trace (FIGS. 12, 13 and 14). Furthermore we calculated the time-dependent IC-50 values for each compound against the various cell lines (FIG. 15) and developed an algorithm to calculate Cell Change Index to profile the dynamic cell response of the different chemotherapeutic agents across the different cell lines. Cell Change Index was calculated for the dynamic RT-CES responses of different cell lines to different chemotherapeutic agents using the definitions described above. Based on the time-dependent values of CCI, each CCI value region across the time scale is represented by black-white shading-based coding. […]

H460 cells = assay: RT-CES time-dependent cell index of drug-treated H460 cells; type: cell-based, human
Experimental: The device was positioned on a device station that was located in an incubator maintaining conditions of 37 degrees C. and 5% CO2. […] The cell-substrate impedance monitoring system calculated the cell index at each time point monitored and plotted the cell index as a function of time.
The device was positioned on a device station that was located in an incubator maintaining conditions of 37 degrees C. and 5% CO2.

A549 cells [4] = assay: Annexin V staining of A549 cells; type: cell-based, Human; conditions: 12.5 nM for 20 hours
Experimental: FIG. 20. Dynamic monitoring of drug interaction with target cells using a cell-substrate imepdnace monitoring system of the presnet invention. (A) A549 cells were seeded in a device of present invention at a density of 10,000 cells per well and the cells were continuously monitored up to 24 hours at which point paclitaxel was added at the indicated final concentrations. (B) Annexin V staining of A549 cells treated with DMSO or 12.5 nM paclitaxel for 20 hours.
as §1, with “The phenomenon observed in FIG. 20A would've been easily missed by traditional single-point assays such as MTT.” left out

Cos-7 cells = assay: RT-CES monitoring of morphological changes in Cos-7 cells; type: cell-based; conditions: serum starved Cos-7 cells; 50 nanograms/mL
Experimental: Cells were seeded in wells of a 16 well monitoring device (16× E-Plate) of the present invention that engaged a device station of a cell-substate monitoring system. The device station was positioned in an incubator held at 37 degrees C. and 5% CO2. The cells were serum starved for 8 hours and then stimulated with 50 nanograms/mL of EGF. […] Impedance was monitored at 3 minute intervals for 2 hours and then at 1 hour intervals for 14 hours. The cell index was calculated by the system and plotted as a function of time. […] The arrow indicates the point of EGF addition.

A549 cells [5] = assay: Flow cytometry cell cycle analysis of A549 cells; type: cell-based, Human; conditions: 100 μM

COC[C@H]1OC(=O)c2coc3c2[C@@]1(C)C1=C(C3=O)[C@@H]2CCC(=O)[C@@]2(C)C[C@H]1OC(C)=O [Wortmannin]
inhibition of NK-92-mediated cytolysis of A549 cells [1]: dose-dependently inhibited | effect of inhibitor alone on A549 baseline (A549 cells [2]): minimal effect on the baseline

COc1cccc2c1C(=O)c1c(O)c3c(c(O)c1C2=O)C[C@@](O)(C(=O)CO)C[C@@H]3O[C@H]1C[C@H](N)[C@H](O)[C@H](C)O1 [doxorubicin]
time after treatment at which cell index reached a peak and started decreasing ([3]; 3.13 uM, most cell types tested, depending on cell type): 10 to 20 h

COc1cccc(-c2cc(=O)c3ccccc3o2)c1N [PD98059]
inhibition of NK-92-mediated cytolysis of A549 cells [1]: dose-dependently inhibited | effect of inhibitor alone on A549 baseline (A549 cells [2]): minimal effect on the baseline

CC[C@H](CO)Nc1nc(NCc2ccccc2)c2ncn(C(C)C)c2n1 [roscovitine]
cell index curve pattern [3]: near-constant

CC(=O)O[C@H]1C(=O)[C@@]2(C)[C@H]([C@H](OC(=O)c3ccccc3)[C@]3(O)C[C@H](OC(=O)[C@H](O)[C@@H](NC(=O)c4ccccc4)c4ccccc4)C(C)=C1C3(C)C)[C@]1(OC(C)=O)CO[C@@H]1C[C@@H]2O [paclitaxel]
time over which cell index exhibited a near-constant value (H460 cells; 33 nM): about 15 hours | cell index change after compound addition (H460 cells; concentration between 67 nM and 500 nM): gradual decrease in cell index | duration of initial decrease in cell index ([3]; 0.78-12.5 nM): 15 to 20 h | duration of initial cell index decrease before cell index increase ([3]; nM concentration, varies between cell types): about 15 hrs | effect on A549 cell index (A549 cells [2]; human): initially induces a cytotoxic effect | Annexin V staining (A549 cells [4]): cell death

epidermal growth factor [EGF]
cell index response (morphological change) (Cos-7 cells): initial jump in cell index

O=c1[nH]cc(F)c(=O)[nH]1 [5-Fluorouracil]
cell index curve pattern [3]: going up first and then going down

Cn1cnc2c(NCc3ccccc3)nc(NCCO)nc21 [olomoucine]
cell cycle analysis by flow cytometry (A549 cells [5]): cell cycle arrest at the G2→M transition | cell index response ([3]; 100 uM, significant number of cell types tested, for some length of time (10, 20 or 30 hrs)): near-constant cell index | Cell Index trace (A549 cells [2]; exponentially growing A549 cells, 100 μM): level off and remain in a steady state

CN[C@H]1CCc2cc(OC)c(OC)c(OC)c2-c2ccc(OC)c(=O)cc21 [colcemid]
cell index curve pattern [3]: going down and then going up

CC[C@]1(O)C[C@@H]2CN(CCc3c([nH]c4ccccc34)[C@@](C(=O)OC)(c3cc4c(cc3OC)N(C)[C@H]3[C@@](O)(C(=O)OC)[C@H](OC(C)=O)[C@]5(CC)C=CCN6CC[C@]43[C@@H]65)C2)C1 [vinblastin]
cell index curve pattern [3]: going down and then going up
